Data taken from patent US11793782B2, “Therapeutic agents for neurodegenerative diseases” (priority 2017, dated 2023).

Tested on: ataxia telangiectasia patients
Assay: Case studies, ataxia telangiectasia patients (SARA, SCAFI, video-oculography)
Type: in vivo, human
Details: for 8MWT: baseline 8.95 sec; for PATA: baseline 14.5; for 9HPTND: baseline 71.2 sec; for 9HPTD: baseline 85.38 sec
Excerpt: For example, to evaluate overall neurological status, mDRS, a four-domain scale (ambulation, manipulation, language and swallowing), may be applied. Cerebellar function may be evaluated using SARA, an eight-item clinical rating scale (gait, stance, sitting, speech, fine motor function and taxis; range 0-40, where 0 is the best neurological status and 40 the worst), and SCAFI, comprising the 8-m-Walking-Time (8 MW; performed by having patients walking twice as quickly as possible from one line to another excluding turning), 9-Hole-Peg-Test (9HPT) and the number of “PATA” repetitions over 10 s. Subjective impairment and quality of life may be evaluated using the EQ-5D-5L questionnaire and VAS. To assess ocular motor function, 3-dimensional videooculography (EyeSeeCam) may be used to measure the peak velocity of saccades, gain of smooth pursuit, peak slow phase velocity of gaze-evoked nystagmus (gaze-holding function), peak slow phase velocity of optokinetic nystagmus, and gain of horizontal vestibulo-ocular reflex. To evaluate the cognitive state, WAIS-R or WISC-IV, and MoCA, assessing different cognitive domains, including attention and concentration, executive functions, memory, language, visuoconstructional skills, conceptual thinking, calculations, and orientation with a maximum of 30 points and a cut-off score of 26, may be used. The skilled person will know how to perform these and other such tests.
After one month of treatment, the patient was re-evaluated. […] Examination indicated a Scale for Assessment and Rating of Ataxia (SARA) score of 15.5/40. Results from the patient's Spinocerebellar Ataxia Functional Index (SCAFI) analysis were: • Mean 8-meters Walking Test (8 MW): 18.5 s • MW 9-Hole Pegboard Test Dominant (9HPTD) (right): 77.9 s • MW 9-Hole Pegboard Test Non-Dominant (9HPTND): 101.3 s • MW PATA Word Test: 13 • Visual analog scale (as evaluated by the patient): 85
After one month of treatment, the patient was re-evaluated. […] Examination indicated a Scale for Assessment and Rating of Ataxia (SARA) score of 23.5/40.
After slightly over 7 months of treatment, the patient was re-evaluated. […] Examination indicated a Scale for Assessment and Rating of Ataxia (SARA) score of 21.5/40.
After slightly over 1 month of treatment, the patient was re-evaluated. […] The patient also reported that drinking was easier and no longer needed a straw. […] Examination indicated a Scale for Assessment and Rating of Ataxia (SARA) score of 18.5/40.
After about 1 month of treatment, the patient was re-evaluated. […] On medication, they were able to walk with only holding the caregiver's hand.
The patient was evaluated after one month and six months of treatment, respectively. […] The patient, however, was suffering from anxiety, which would be expected to negatively influence the response.

[1] = ataxia telangiectasia Patient 4, after slightly over 1 month, Down
[2] = ataxia telangiectasia Patient 4, after slightly over 1 month, Left
[3] = ataxia telangiectasia Patient 4, after slightly over 1 month, Right
[4] = ataxia telangiectasia Patient 5, after about 1 month
[5] = ataxia telangiectasia Patient 5, after about 1 month, Center
[6] = ataxia telangiectasia Patient 5, after about 1 month, Down
[7] = ataxia telangiectasia Patient 5, after about 1 month, Left
[8] = ataxia telangiectasia Patient 5, after about 1 month, Right
[9] = ataxia telangiectasia Patient 5, after about 1 month, Up
[10] = ataxia telangiectasia Patient 5, after almost 7 months
[11] = ataxia telangiectasia Patient 5, after slightly over a year
[12] = ataxia telangiectasia Patient 6, after one month
[13] = ataxia telangiectasia Patient 6, after six months

## CC(=O)NC(CC(C)C)C(=O)O (racemic) [acetyl-DL-leucine]
Ataxia telangiectasia Patient 4, after slightly over 1 month, Center
  Slow phase velocity of the gaze-holding nystagmus, Vertical: 4.8 °/s
[1]
  Slow phase velocity of the gaze-holding nystagmus, Horizontal: −0.7 °/s
  Slow phase velocity of the gaze-holding nystagmus, Vertical: −2.3 °/s
[2]
  Slow phase velocity of the gaze-holding nystagmus, Horizontal: −0.8 °/s
  Slow phase velocity of the gaze-holding nystagmus, Vertical: 1.9 °/s
[3]
  Slow phase velocity of the gaze-holding nystagmus, Horizontal: −1 °/s
  Slow phase velocity of the gaze-holding nystagmus, Vertical: 0.3 °/s
Ataxia telangiectasia Patient 4, after slightly over 1 month, before 14
  PATA Word Test: 15.5
Ataxia telangiectasia Patient 4, after slightly over 1 month, before 52.3 s
  9-Hole Pegboard Test Non-Dominant (9HPTND): 101.7 s
Ataxia telangiectasia Patient 4, after slightly over 1 month, before 70
  Visual analog scale (as evaluated by the patient): 70
Ataxia telangiectasia Patient 4, after slightly over 1 month, before 124.5 s
  9-Hole Pegboard Test Dominant (9HPTD) (right): 93.5 s
Ataxia telangiectasia Patient 5, 5 g/day, after about 1 month
  Mother's report: significant improvement of stability of the gait
[4]
  Mean 8-meters Walking Test (8 MW): not able to walk without support
  Weight gained: 1.5 kg
[5]
  Slow-phase velocity (SPV) of fixation and gaze-holding nystagmus, Horizontal: 0.79 °/s
  Slow-phase velocity (SPV) of fixation and gaze-holding nystagmus, Vertical: 3.54 °/s
[6]
  Slow-phase velocity (SPV) of fixation and gaze-holding nystagmus, Horizontal: 0.62 °/s
  Slow-phase velocity (SPV) of fixation and gaze-holding nystagmus, Vertical: 1.08 °/s
[7]
  Slow-phase velocity (SPV) of fixation and gaze-holding nystagmus, Horizontal: 1.22 °/s
  Slow-phase velocity (SPV) of fixation and gaze-holding nystagmus, Vertical: 2.53 °/s
[8]
  Slow-phase velocity (SPV) of fixation and gaze-holding nystagmus, Horizontal: 1.17 °/s
  Slow-phase velocity (SPV) of fixation and gaze-holding nystagmus, Vertical: 2.36 °/s
[9]
  Slow-phase velocity (SPV) of fixation and gaze-holding nystagmus, Horizontal: 0.33 °/s
  Slow-phase velocity (SPV) of fixation and gaze-holding nystagmus, Vertical: 1.71 °/s
Ataxia telangiectasia Patient 5, after about 1 month, before 6
  PATA Word Test: 7.5
Ataxia telangiectasia Patient 5, after about 1 month, before 90
  Visual analog scale (as evaluated by the patient): 80
Ataxia telangiectasia Patient 5, after about 1 month, before 102.7 s
  9-Hole Pegboard Test Dominant (9HPTD) (right): 103.6 s
Ataxia telangiectasia Patient 5, after about 1 month, before 116.8 s
  9-Hole Pegboard Test Non-Dominant (9HPTND): 88.8 s
[10]
  9-Hole Pegboard Test Dominant (9HPTD) (right): 92.4 s
  9-Hole Pegboard Test Non-Dominant (9HPTND): 98.3 s
  Further weight gained: 3 kg
  Mother's report: significantly more stable gait
  PATA Word Test: 11
  Visual analog scale (as evaluated by the patient): 100
Ataxia telangiectasia Patient 5, after almost 7 months, holding of the hand
  Mean 8-meters Walking Test (8 MW): 15.3 s
[11]
  9-Hole Pegboard Test Dominant (9HPTD) (right): 95.6 s
  9-Hole Pegboard Test Non-Dominant (9HPTND): 127.6 s
  Clinical observation: improved social interaction, activity, and agility
  PATA Word Test: 14.5
  Visual analog scale (as evaluated by the patient): 95
Ataxia telangiectasia Patient 5, after slightly over a year, able to walk by themself, parent held hand
  Mean 8-meters Walking Test (8 MW): 13.9 s
Ataxia telangiectasia Patient 5, after slightly over a year, suspected infantile migraine
  Adverse observation: repeatedly occuring frontal localized pain with vomiting in the morning
[12]
  Clinical observation: increased fine motor skills with reduced hand tremor, improved postural stability and gait, increased enunciation, and increased self-confidence
  8MWT: 8.45 s
  PATA: 15.5
  9HPTND: 70.39 s
  9HPTD: 81.95 s
[13]
  Clinical observation: stable general conditions, stable gait and stance, and improved handwriting
  8MWT: 7.53 s
  PATA: 13
  9HPTND: 80.32 s
  9HPTD: 136.27 s
Ataxia telangiectasia Patient 6, after six months, baseline 11/40
  SARA: 11/40
